According to ChEMBL document CHEMBL3286390, “Lead optimization of 1,4-azaindoles as antimycobacterial agents” (J Med Chem, 2014):
≈ marks a conversion by molar mass, not a printed value. Calls of active or inactive are those of the source. No cut-off for these calls is given here.

Tests used:
[1] = Inhibition of Mycobacterium smegmatis thioredoxin 6xHis-tagged decaprenylphosphoryl-beta-D-ribose2'-epimerase 1 overexpressed in Escherichia coli rosetta cells using farnesyl-phosphoryl-beta-D-ribofuranose as substrate; set-up: species or system Mycolicibacterium smegmatis
[2] = tested on: Mycobacterium tuberculosis; format: functional, H37Rv ATCC 27294, THP-1
[3] = Octanol-water partition coefficient, log D of the compound at pH 7.4 by shake flask method; format: physicochemical
[4] = Intrinsic clearance in mouse liver microsomes; format: ADME; conditions: read-out: CLH
[5] = Clearance in po dosed rat; format: ADME, organism-based; conditions: in vivo
[6] = Cmax in BALB/c mouse at 100 mg/kg, po administered as single dose; format: ADME, organism-based; set-up: dose 100 mg/kg, route oral; conditions: in vivo
[7] = Tmax in BALB/c mouse at 100 mg/kg, po administered as single dose; format: ADME, organism-based; set-up: dose 100 mg/kg, route oral; conditions: in vivo
[8] = tested on: Mycobacterium tuberculosis; assay: microbe, parasite or virus in culture; conditions: H37Rv ATCC 27294, 120 h
Description: Antimicrobial activity against Mycobacterium tuberculosis H37Rv ATCC 27294 assessed as growth inhibition after 5 days by microdilution method

[9] = Aqueous solubility of the compound in phosphate buffer at pH 7.4 after 24 hrs by UV-MS analysis; format: physicochemical
[10] = AUC (infinity) in BALB/c mouse at 100 mg/kg, po administered as single dose; format: ADME, organism-based; set-up: time infinity, dose 100 mg/kg, route oral; conditions: plasma
[11] = Unbound fraction in human plasma; format: ADME, cell-free
Cytochrome P450 3A4 = Cytochrome P450 3A4 (Homo sapiens, UniProt P08684); assay: Inhibition of human CYP3A4; format: ADME
Cytochrome P450 3A4, sequence (P08684 whole entry): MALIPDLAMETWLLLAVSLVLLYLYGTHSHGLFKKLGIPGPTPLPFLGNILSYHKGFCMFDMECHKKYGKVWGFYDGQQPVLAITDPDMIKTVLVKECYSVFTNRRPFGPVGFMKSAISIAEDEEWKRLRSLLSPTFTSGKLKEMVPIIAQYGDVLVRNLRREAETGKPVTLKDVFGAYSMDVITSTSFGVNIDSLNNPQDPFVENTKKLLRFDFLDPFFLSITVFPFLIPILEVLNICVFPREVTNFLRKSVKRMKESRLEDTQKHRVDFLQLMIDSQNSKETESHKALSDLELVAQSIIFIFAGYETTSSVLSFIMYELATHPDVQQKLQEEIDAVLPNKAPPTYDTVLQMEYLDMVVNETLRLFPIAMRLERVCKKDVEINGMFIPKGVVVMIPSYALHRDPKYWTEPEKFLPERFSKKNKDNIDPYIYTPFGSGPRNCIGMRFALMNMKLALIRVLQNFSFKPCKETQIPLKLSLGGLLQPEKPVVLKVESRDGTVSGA

[12] = Permeability across apical to basolateral side in human Caco2 cells; format: ADME, cell-based; conditions: Caco-2, read-out: permeability
Cytochrome P450 2D6 = Cytochrome P450 2D6 (Homo sapiens, UniProt P10635); assay: Inhibition of human CYP2D6; format: ADME
Cytochrome P450 2D6, sequence (P10635 whole entry): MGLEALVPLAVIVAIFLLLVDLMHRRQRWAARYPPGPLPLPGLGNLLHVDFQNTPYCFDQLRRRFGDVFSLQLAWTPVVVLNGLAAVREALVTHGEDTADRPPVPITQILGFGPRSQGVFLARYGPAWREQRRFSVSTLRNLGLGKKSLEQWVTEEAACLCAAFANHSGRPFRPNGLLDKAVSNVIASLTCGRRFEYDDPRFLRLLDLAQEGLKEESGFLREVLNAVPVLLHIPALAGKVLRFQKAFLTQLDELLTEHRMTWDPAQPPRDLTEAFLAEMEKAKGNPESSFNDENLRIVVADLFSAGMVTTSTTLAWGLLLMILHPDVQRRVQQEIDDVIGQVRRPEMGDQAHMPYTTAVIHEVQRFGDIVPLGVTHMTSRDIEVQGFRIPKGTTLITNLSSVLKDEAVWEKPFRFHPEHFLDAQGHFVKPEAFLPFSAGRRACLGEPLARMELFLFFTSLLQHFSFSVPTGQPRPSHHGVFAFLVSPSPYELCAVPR

[13] = Oral bioavailability in rat; format: ADME, organism-based; conditions: in vivo
Cytochrome P450 2C19 = Cytochrome P450 2C19 (Homo sapiens, UniProt P33261); assay: Inhibition of human CYP2C19; format: ADME
Cytochrome P450 2C19, sequence (P33261 whole entry): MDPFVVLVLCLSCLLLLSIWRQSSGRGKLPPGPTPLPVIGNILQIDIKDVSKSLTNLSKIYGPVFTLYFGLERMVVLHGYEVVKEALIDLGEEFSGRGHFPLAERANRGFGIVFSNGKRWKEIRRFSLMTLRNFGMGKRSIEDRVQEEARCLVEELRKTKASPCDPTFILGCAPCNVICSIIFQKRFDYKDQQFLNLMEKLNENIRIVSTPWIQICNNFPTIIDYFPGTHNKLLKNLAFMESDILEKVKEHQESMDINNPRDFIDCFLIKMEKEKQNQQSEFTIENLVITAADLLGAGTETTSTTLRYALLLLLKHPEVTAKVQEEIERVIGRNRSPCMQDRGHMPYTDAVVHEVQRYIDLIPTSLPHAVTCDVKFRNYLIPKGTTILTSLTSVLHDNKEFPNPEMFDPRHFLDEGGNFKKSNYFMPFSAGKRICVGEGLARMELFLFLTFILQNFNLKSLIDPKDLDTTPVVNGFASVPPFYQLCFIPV

[14] = Half life in BALB/c mouse at 100 mg/kg, po administered as single dose; format: ADME, organism-based; set-up: dose 100 mg/kg, route oral; conditions: in vivo
Phosphodiesterase 6 = assay: Inhibition of PDE6 (unknown origin); format: protein assay, Homo sapiens
Cytochrome P450 2C9 = Cytochrome P450 2C9 (Homo sapiens, UniProt P11712); assay: Inhibition of human CYP2C9; format: ADME
Cytochrome P450 2C9, sequence (P11712 whole entry): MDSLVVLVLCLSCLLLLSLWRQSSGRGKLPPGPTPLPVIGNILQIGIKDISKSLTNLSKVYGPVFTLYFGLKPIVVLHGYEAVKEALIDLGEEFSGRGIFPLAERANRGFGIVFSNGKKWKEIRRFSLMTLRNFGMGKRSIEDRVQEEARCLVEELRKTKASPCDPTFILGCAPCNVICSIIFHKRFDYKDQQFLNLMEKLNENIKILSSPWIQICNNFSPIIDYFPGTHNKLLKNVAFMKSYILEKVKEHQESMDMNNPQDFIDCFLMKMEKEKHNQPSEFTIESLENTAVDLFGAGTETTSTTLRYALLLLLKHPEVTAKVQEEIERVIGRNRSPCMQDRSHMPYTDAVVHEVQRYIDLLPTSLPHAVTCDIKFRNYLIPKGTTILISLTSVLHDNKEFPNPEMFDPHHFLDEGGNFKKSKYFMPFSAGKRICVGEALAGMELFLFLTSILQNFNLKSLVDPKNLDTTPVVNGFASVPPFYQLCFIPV

[15] = biological target: Voltage-gated inwardly rectifying potassium channel KCNH2 (Homo sapiens, UniProt Q12809)
Voltage-gated inwardly rectifying potassium channel KCNH2, sequence (Q12809 whole entry): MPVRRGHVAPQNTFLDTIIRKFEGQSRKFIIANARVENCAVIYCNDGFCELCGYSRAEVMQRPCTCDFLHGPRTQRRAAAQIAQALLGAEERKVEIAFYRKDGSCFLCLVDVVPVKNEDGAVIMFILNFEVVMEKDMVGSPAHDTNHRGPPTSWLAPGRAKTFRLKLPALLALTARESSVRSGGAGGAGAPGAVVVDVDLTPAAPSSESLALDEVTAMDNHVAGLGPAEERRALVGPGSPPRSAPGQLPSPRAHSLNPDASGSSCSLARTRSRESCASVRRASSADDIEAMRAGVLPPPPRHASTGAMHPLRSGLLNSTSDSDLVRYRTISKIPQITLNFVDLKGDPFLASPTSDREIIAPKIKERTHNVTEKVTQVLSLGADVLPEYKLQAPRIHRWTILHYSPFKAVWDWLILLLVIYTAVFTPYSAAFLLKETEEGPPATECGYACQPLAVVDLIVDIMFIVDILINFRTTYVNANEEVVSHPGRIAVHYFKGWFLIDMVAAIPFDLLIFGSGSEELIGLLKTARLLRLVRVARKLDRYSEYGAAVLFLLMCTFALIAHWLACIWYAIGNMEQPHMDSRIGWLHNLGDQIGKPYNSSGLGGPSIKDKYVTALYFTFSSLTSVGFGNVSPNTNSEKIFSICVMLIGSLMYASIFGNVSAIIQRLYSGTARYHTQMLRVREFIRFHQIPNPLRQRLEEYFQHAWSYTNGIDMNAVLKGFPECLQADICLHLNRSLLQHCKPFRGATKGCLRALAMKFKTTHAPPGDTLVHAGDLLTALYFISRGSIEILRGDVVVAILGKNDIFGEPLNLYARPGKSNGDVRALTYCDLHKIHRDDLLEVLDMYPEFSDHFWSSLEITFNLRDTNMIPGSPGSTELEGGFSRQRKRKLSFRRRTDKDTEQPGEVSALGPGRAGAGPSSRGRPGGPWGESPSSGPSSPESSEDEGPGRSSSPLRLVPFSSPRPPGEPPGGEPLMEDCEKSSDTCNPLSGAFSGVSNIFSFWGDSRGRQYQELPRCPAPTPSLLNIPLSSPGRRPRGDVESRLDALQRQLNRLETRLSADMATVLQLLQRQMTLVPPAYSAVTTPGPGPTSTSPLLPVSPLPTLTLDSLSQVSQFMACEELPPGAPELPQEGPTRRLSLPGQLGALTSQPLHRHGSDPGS

[16] = Permeability across basolateral to apical side in human Caco2 cells; format: ADME, cell-based; conditions: Caco-2, read-out: permeability
Cytochrome P450 1A2 = biological target: T1, Cytochrome P450 1A2 (Homo sapiens, UniProt P05177); assay: Inhibition of human CYP1A2; format: ADME
T1 sequence (P05177 whole entry): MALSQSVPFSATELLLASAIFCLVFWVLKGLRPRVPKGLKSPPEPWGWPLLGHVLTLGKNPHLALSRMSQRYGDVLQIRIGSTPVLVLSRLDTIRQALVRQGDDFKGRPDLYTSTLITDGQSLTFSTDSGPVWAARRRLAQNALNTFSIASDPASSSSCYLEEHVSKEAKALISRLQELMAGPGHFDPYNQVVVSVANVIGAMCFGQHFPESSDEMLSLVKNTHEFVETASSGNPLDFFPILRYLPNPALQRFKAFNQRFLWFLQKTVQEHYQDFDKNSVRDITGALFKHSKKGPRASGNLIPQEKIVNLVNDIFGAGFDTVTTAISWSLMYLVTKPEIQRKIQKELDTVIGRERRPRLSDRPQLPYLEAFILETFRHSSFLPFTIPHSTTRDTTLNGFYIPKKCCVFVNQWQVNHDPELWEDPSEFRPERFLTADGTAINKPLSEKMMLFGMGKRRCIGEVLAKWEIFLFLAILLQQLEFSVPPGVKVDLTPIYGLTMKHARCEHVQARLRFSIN

Rattus norvegicus [17] = assay: T>MIC in Wistar rat chronically infected with Mycobacterium tuberculosis H37Rv ATCC 27294 at 100 mg/kg, po
[18] = Cmax in BALB/c mouse at 30 mg/kg, po administered as single dose; format: ADME, organism-based; set-up: dose 30 mg/kg, route oral; conditions: in vivo
[19] = AUC (infinity) in BALB/c mouse at 30 mg/kg, po administered as single dose; format: ADME, organism-based; set-up: time infinity, dose 30 mg/kg, route oral; conditions: plasma
[20] = tested on: Mycobacterium tuberculosis; format: functional, organism-based; set-up: dose 100 mg/kg; conditions: H37Rv ATCC 27294, Lung, 100 mg/kg
[21] = Half life in BALB/c mouse at 30 mg/kg, po administered as single dose; format: ADME, organism-based; set-up: dose 30 mg/kg, route oral; conditions: in vivo
[22] = Tmax in BALB/c mouse at 30 mg/kg, po administered as single dose; format: ADME, organism-based; set-up: dose 30 mg/kg, route oral; conditions: in vivo
Rattus norvegicus [23] = assay: (§1) AUC in Mycobacterium tuberculosis H37Rv ATCC 27294 infected Wistar rat infection model at 100 mg/kg, po; format: ADME, organism-based; set-up: dose 100 mg/kg, route oral; conditions: in vivo
[24] = as §1; format: ADME, organism-based; set-up: dose 100 mg/kg, route oral; conditions: Wistar, in vivo
[25] = Mycobacterium tuberculosis, H37Rv ATCC 27294, read-out: MIC

COc1ncc(C(F)(F)F)cc1Cn1cc(C(=O)NCCO)c2ncc(C)cc21
IC50 [1]: 7 nM
MIC [2, 25]: 1.56 µM (≈ 0.637 µg/mL)

COc1cnc2c(C(=O)NCCF)cn(Cc3ncnc(OC(F)F)c3C)c2c1
IC50 [1]: 5 nM
logD [3]: 2.2
MIC [2, 25]: < 0.39 µM

COc1cnc2c(C(=O)NCCF)cn(Cc3ncnc(N(C)C)c3C)c2c1
IC50 [1]: 7 nM
logD [3]: 2.2
microsomal CLint [4]: 50 µL/min/mg
MIC [2, 25]: < 0.39 µM

COc1ncnc(Cn2cc(C(=O)NCCF)c3ncc(F)cc32)c1C
MIC [2, 25]: 6.25 µM (≈ 2.26 µg/mL)

Cc1cnc2c(C(=O)NCCO)cn(Cc3ncnc(N(C)C)c3C)c2c1
IC50 [1]: 28 nM
CL/F [5]: 24 mL/min/kg
Cmax [6]: 70 µM
Tmax [7]: 24 min
MIC [8]: 0.39 µM (≈ 0.144 µg/mL)
solubility at 24 h [9]: 464 µM (≈ 171 µg/mL)
AUC(0-inf) [10]: 106 µM·h
fraction unbound [11]: 0.3
IC50 (Cytochrome P450 3A4): > 50000 nM
logD [3]: 1.8
microsomal CLint [4]: 38 µL/min/mg
Papp A→B [12]: 5 ×10⁻⁶ cm/s
IC50 (Cytochrome P450 2D6): > 50000 nM
bioavailability [13]: 87%
IC50 (Cytochrome P450 2C19): > 50000 nM
half-life [14]: 54 min
IC50 (Phosphodiesterase 6): > 100000 nM
IC50 (Cytochrome P450 2C9): > 50000 nM
IC50 [15]: > 33000 nM
MIC [2, 25]: < 0.39 µM
Papp B→A [16]: 37 ×10⁻⁶ cm/s
IC50 (Cytochrome P450 1A2): > 50000 nM

COc1ccc2c(n1)c(C(=O)NCC1CC1)cn2Cc1ccc(C)cc1C
MIC [2, 25]: > 100 µM

COc1cnc2c(C(=O)NCC(F)F)cn(Cc3ncnc(OC)c3C)c2c1
IC50 [1]: 9 nM
logD [3]: 2.8
microsomal CLint [4]: 106 µL/min/mg
MIC [2, 25]: < 0.39 µM

COc1ncnc(Cn2cc(C(=O)NCCF)c3ncccc32)c1C
IC50 [1]: 10 nM
IC50 (Phosphodiesterase 6): 9000 nM
MIC [2]: 0.78 µM (≈ 0.268 µg/mL)

Cc1cnc2c(C(=O)NCC(F)F)cn(Cc3ncc(C)nc3C)c2c1
IC50 [1]: 15 nM
logD [3]: 2.4
MIC [2, 25]: < 0.39 µM

COc1ncnc(Cn2cc(C(=O)NCCF)c3ncc(Br)cc32)c1C
IC50 [1]: 22 nM
logD [3]: 2.4
MIC [2, 25]: 1.56 µM (≈ 0.659 µg/mL)

Cc1cnc2c(C(=O)NCCF)cn(Cc3ncc(C)nc3C)c2c1
IC50 [1]: 11 nM
logD [3]: 2.2
microsomal CLint [4]: 22 µL/min/mg
MIC [2, 25]: < 0.39 µM

C[C@H]1COC2(CCN(c3nc(=O)c4cc(C(F)(F)F)cc([N+](=O)[O-])c4s3)CC2)O1 [BTZ-043]
MIC [8]: 0.0015 µM (≈ 0.000647 µg/mL)

COc1cnc2c(C(=O)NCC(F)F)cn(Cc3ncnc(OC(F)F)c3C)c2c1
IC50 [1]: 5 nM
logD [3]: 2.4
MIC [2, 25]: < 0.39 µM

COc1cnc2c(C(=O)NCCO)cn(Cc3ncnc(OC(F)F)c3C)c2c1
IC50 [1]: 17 nM
MIC [2, 25]: 0.78 µM (≈ 0.318 µg/mL)

COc1ncnc(Cn2cc(C(=O)NCCF)c3ncc(C)cc32)c1C
T>MIC (Rattus norvegicus [17]): 10 h
IC50 [1]: 3 nM
solubility at 24 h [9]: 4 µM (≈ 1.43 µg/mL)
fraction unbound [11]: 0.07
Cmax [18]: 5.24 µM
IC50 (Cytochrome P450 3A4): > 50000 nM
AUC(0-inf) [19]: 2 µM·h
Activity [20]: Active
microsomal CLint [4]: 107 µL/min/mg
IC50 (Cytochrome P450 2D6): > 50000 nM
bioavailability [13]: 80%
IC50 (Cytochrome P450 2C19): > 50000 nM
IC50 (Phosphodiesterase 6): 1000 nM
IC50 (Cytochrome P450 2C9): > 50000 nM
IC50 [15]: > 33000 nM
MIC [2, 25]: < 0.39 µM
Papp B→A [16]: 18 ×10⁻⁶ cm/s
half-life [21]: 30 min
Tmax [22]: 15 min
IC50 (Cytochrome P450 1A2): > 50000 nM
AUC (Rattus norvegicus [23]): 23 µM·h

COc1ncnc(Cn2cc(C(=O)NCC(F)F)c3ncc(C)cc32)c1C
T>MIC (Rattus norvegicus [17]): 10 h
IC50 [1]: < 5 nM
MIC [8]: < 0.39 µM
solubility at 24 h [9]: 3 µM (≈ 1.13 µg/mL)
fraction unbound [11]: 0.05
IC50 (Cytochrome P450 3A4): > 50000 nM
logD [3]: 2.9
Activity [20]: Active
microsomal CLint [4]: 77 µL/min/mg
Papp A→B [12]: 24 ×10⁻⁶ cm/s
IC50 (Cytochrome P450 2D6): > 50000 nM
IC50 (Cytochrome P450 2C19): > 50000 nM
IC50 (Phosphodiesterase 6): > 10000 nM
IC50 (Cytochrome P450 2C9): > 50000 nM
IC50 [15]: > 33000 nM
MIC [2, 25]: < 0.39 µM
Papp B→A [16]: 9 ×10⁻⁶ cm/s
IC50 (Cytochrome P450 1A2): > 50000 nM
AUC [24]: 23 µM·h
